In US11414424B2, “Cardiac sarcomere inhibitors” (Cytokinetics, Inc., priority 2018, dated 2022):

System: bovine cardiac myofibrils
Assay: Myofibril assay: PK/LDH-coupled steady-state ATPase activity of skinned bovine cardiac myofibrils
Assay type: biochemical
Conditions: Ca2+ activating to 75% of maximal rate
In short: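 Steady-state ATPase of detergent-skinned bovine left-ventricular myofibrils (1 mg/mL), PK/LDH-coupled NADH read at 340 nm, in PIPES/MgCl2 buffer pH 6.8 with 50 μM ATP, 0.6 mM EGTA and CaCl2 set for 50% or 75% activation. Inhibition of activity measured.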

CDMF75 IC15 [µM] | SMILES
24.6 | O=C1C(C2COC2)N(Cc2ccc(C(F)(F)F)cc2)C(=O)CN1c1ncc(OC(F)F)cc1F (centres unmarked) [Compound 711, 1-(5-(difluoromethoxy)-3-fluoropyridin-2-yl)-3-(oxetan-3-yl)-4-(4-(trifluoromethyl)benzyl)-piperazine-2,5-dione]
12.4 | Cc1cc(Cl)cnc1N1CC(=O)N(Cc2ccc(F)cc2)C(C2COC2)C1=O (centres unmarked) [Compound 714, 1-(5-chloro-3-methylpyridin-2-yl)-4-(4-fluorobenzyl)-3-(oxetan-3-yl)piperazine-2,5-dione]
7.3 | Cc1cc(Cl)cnc1N1CC(=O)N(Cc2ccc(F)c(Cl)c2)C(C2COC2)C1=O (centres unmarked) [Compound 717, 1-(5-chloro-3-methyl-pyridin-2-yl)-4-(3-chloro-4-fluorobenzyl)-3-(oxetan-3-yl)piperazine-2,5-dione]
9.2 | Cc1cc(Cl)cnc1N1CC(=O)N(Cc2ccc(F)c(F)c2)C(C2COC2)C1=O (centres unmarked) [Compound 720, 1-(5-chloro-3-methyl-pyridin-2-yl)-4-(3,4-difluorobenzyl)-3-(oxetan-3-yl)piperazine-2,5-dione]
7.1 | C=Cc1cnc(N2CC(=O)N(Cc3ccc(Cl)cc3)C(C3COC3)C2=O)c(F)c1 (centres unmarked) [Compound 723, 4-(4-chlorobenzyl)-1-(3-fluoro-5-vinylpyridin-2-yl)-3-(oxetan-3-yl)piperazine-2,5-dione]
13.8 | Cc1ccc(CN2C(=O)CN(c3ncc(Cl)cc3C)C(=O)C2C2COC2)cc1F (centres unmarked) [Compound 724, 1-(5-chloro-3-methyl-pyridin-2-yl)-4-(3-fluoro-4-methylbenzyl)-3-(oxetan-3-yl)piperazine-2,5-dione]
3.2 | Cc1cc(CN2C(=O)CN(c3ncc(Cl)cc3C)C(=O)C2C2COC2)ccc1F (centres unmarked) [Compound 727, 1-(5-chloro-3-methyl-pyridin-2-yl)-4-(4-fluoro-3-methylbenzyl)-3-(oxetan-3-yl)piperazine-2,5-dione]
3.4 | Cc1cc(Cl)cnc1N1CC(=O)N(Cc2ccc(Cl)c(F)c2)C(C2COC2)C1=O (centres unmarked) [Compound 730, 4-(4-chloro-3-fluoro-benzyl)-1-(5-chloro-3-methylpyridin-2-yl)-3-(oxetan-3-yl)-piperazine-2,5-dione]
11.8 | Cc1ccc(CN2C(=O)CN(c3ncc(Cl)cc3C)C(=O)C2C2COC2)cc1 (centres unmarked) [Compound 733, 1-(5-chloro-3-methyl-pyridin-2-yl)-4-(4-methyl-benzyl)-3-(oxetan-3-yl)-piperazine-2,5-dione]
2.0 | N#Cc1cnc(N2CC(=O)N(Cc3ccc(C(F)(F)F)cc3)C(C3COC3)C2=O)c(F)c1 (centres unmarked) [Compound 736, 5-fluoro-6-(3-(oxetan-3-yl)-2,5-dioxo-4-(4-(trifluoromethyl)benzyl)-piperazin-1-yl)nicotinonitrile]
2.2 | O=C1C([C@H]2C[C@@H](O)C2)N(Cc2ccc(C(F)(F)F)cc2)C(=O)CN1c1ncc(Cl)cc1F (some centres unmarked) [Compound 739, 1-(5-chloro-3-fluoropyridin-2-yl)-3-((1 s,3s)-3-hydroxycyclobutyl)-4-(4-(trifluoromethyl)benzyl)piperazine-2,5-dione]
2.3 | O=C1C(C2CC(O)C2)N(Cc2ccc(C(F)(F)F)cc2)C(=O)CN1c1ncc(Cl)cc1F (centres unmarked) [Compound 740, 1-(5-chloro-3-fluoropyridin-2-yl)-3-(3-hydroxycyclobutyl)-4-(4-(trifluoromethyl)benzyl)piperazine-2,5-dione]
3.7 | O=C1C(C2COC2)N(Cc2ccc(C(F)(F)F)cc2)C(=O)CN1c1ccc(Cl)c(F)c1 (centres unmarked) [Compound 747, 1-(4-chloro-3-fluorophenyl)-3-(oxetan-3-yl)-4-(4-(trifluoromethyl)benzyl)-piperazine-2,5-dione]
1.0 | O=C1[C@H](C2CC2)N(Cc2ccc(C(F)(F)F)cc2)C(=O)CN1c1ncc(Cl)cc1F [Compound 750, (S)-1-(5-chloro-3-fluoropyridin-2-yl)-3-cyclopropyl-4-(4-(trifluoromethyl)benzyl)piperazine-2,5-dione]
1.3 | O=C1[C@H](C2CC2)N(Cc2ccc(F)cc2)C(=O)CN1c1ncc(Cl)cc1F [Compound 751, (S)-1-(5-chloro-3-fluoro-pyridin-2-yl)-3-cyclo-propyl-4-(4-fluorobenzyl)-piperazine-2,5-dione]

Continued, compound first:

SMILES | CDMF75 IC15 [µM]
Cc1cc(CN2C(=O)CN(c3ncc(Cl)cc3F)C(=O)C2C2COC2)ccc1F (centres unmarked) [Compound 667, 1-(5-chloro-3-fluoropyridin-2-yl)-4-(4-fluoro-3-methyl-benzyl)-3-(oxetan-3-yl)-piperazine-2,5-dione] | 1.1
O=C1C(C2COC2)N(Cc2ccc(F)c(Cl)c2)C(=O)CN1c1ncc(Cl)cc1F (centres unmarked) [Compound 668, 1-(5-chloro-3-fluoropyridin-2-yl)-4-(3-chloro-4-fluorobenzyl)-3-(oxetan-3-yl)piperazine-2,5-dione] | 1.4
O=C1C(C2CCSCC2)N(Cc2ccc(C(F)(F)F)cc2)C(=O)CN1c1ncc(Cl)cc1F (centres unmarked) [Compound 687, 1-(5-chloro-3-fluoropyridin-2-yl)-3-(tetrahydro-2H-thiopyran-4-yl)-4-(4-(trifluoromethyl)benzyl)-piperazine-2,5-dione] | 6.2
O=C1C(C2CCOCC2)N(Cc2ccc(C(F)(F)F)cc2)C(=O)CN1c1ncc(Cl)cc1F (centres unmarked) [Compound 688, 1-(5-chloro-3-fluoropyridin-2-yl)-3-(tetrahydro-2H-pyran-4-yl)-4-(4-(trifluoro-methyl)benzyl)piperazine-2,5-dione] | 3.7
O=C1C(C2CCS(=O)(=O)CC2)N(Cc2ccc(C(F)(F)F)cc2)C(=O)CN1c1ncc(Cl)cc1F (centres unmarked) [Compound 689, 1-(5-chloro-3-fluoropyridin-2-yl)-3-(1,1-dioxidotetra-hydro-2H-thiopyran-4-yl)-4-(4-(trifluoromethyl)-benzyl)piperazine-2,5-dione] | 27.9
O=C1C(C2COC2)N(Cc2ccc(F)cc2)C(=O)CN1c1ccc(Br)cc1F (centres unmarked) [Compound 700, 1-(4-bromo-2-fluoro-phenyl)-4-(4-fluorobenzyl)-3-(oxetan-3-yl)piperazine-2,5-dione] | 3.4
CC(=O)N1CC2(C1)C(=O)N(c1ccc(-c3ncon3)cc1F)CC(=O)N2Cc1ccc(C(F)(F)F)cc1 [Compound 701, 2-acetyl-8-(2-fluoro-4-(1,2,4-oxadiazol-3-yl)phenyl)-5-(4-(trifluoromethyl)benzyl)-2,5,8-triazaspiro[3.5]nonane-6,9-dione] | 3.9
CC(=O)N1CC2(C1)C(=O)N(c1ccc(-c3noc(C)n3)cc1F)CC(=O)N2Cc1ccc(C(F)(F)F)cc1 [Compound 702] | 25.5
N#Cc1ccc(N2CC(=O)N(Cc3ccc(F)cc3)C(C3COC3)C2=O)c(F)c1 (centres unmarked) [Compound 706, 3-fluoro-4-(4-(4-fluoro-benzyl)-3-(oxetan-3-yl)-2,5-dioxopiperazin-1-yl)benzonitrile] | 4.5
O=C1C(C2COC2)N(Cc2ccc(F)cc2)C(=O)CN1c1ncc(Br)cc1F (centres unmarked) [Compound 707, 1-(5-bromo-3-fluoropyridin-2-yl)-4-(4-fluorobenzyl)-3-(oxetan-3-yl)piperazine-2,5-dione] | 2.9
O=C1C(C2COC2)N(Cc2ccc(Cl)cc2)C(=O)CN1c1ncc(Br)cc1F (centres unmarked) [Compound 708, 1-(5-bromo-3-fluoropyridin-2-yl)-4-(4-chlorobenzyl)-3-(oxetan-3-yl)piperazine-2,5-dione] | 1.4
